The source made the active and inactive calls. No cut-off for these calls is given here.
Columns and labels:
[1] = target: T1, Protein cereblon/Eukaryotic peptide chain release factor GTP-binding subunit ERF3A (Homo sapiens, UniProt Q96SW2+P15170); assay: Molecular glue activity at CRBN/HiBiT-tagged GSPT1 in human MOLT-4 cells assessed as induction of GSPT1 degradation measured after 3 hrs by immunoblot analysis; format: cell-based
Target sequence in this assay (Q96SW2 whole entry): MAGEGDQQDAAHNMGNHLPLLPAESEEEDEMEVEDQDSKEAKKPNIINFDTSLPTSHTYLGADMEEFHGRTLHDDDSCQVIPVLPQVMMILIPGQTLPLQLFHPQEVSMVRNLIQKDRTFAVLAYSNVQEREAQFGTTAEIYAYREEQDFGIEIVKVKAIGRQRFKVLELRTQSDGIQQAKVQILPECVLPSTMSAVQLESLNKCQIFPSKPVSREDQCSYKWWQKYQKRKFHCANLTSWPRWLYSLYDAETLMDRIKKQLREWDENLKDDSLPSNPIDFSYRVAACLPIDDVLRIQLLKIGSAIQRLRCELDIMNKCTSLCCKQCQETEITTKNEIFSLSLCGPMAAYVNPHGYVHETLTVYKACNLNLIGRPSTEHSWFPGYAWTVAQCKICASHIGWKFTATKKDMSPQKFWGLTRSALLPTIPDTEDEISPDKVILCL
Target sequence in this assay (P15170 whole entry): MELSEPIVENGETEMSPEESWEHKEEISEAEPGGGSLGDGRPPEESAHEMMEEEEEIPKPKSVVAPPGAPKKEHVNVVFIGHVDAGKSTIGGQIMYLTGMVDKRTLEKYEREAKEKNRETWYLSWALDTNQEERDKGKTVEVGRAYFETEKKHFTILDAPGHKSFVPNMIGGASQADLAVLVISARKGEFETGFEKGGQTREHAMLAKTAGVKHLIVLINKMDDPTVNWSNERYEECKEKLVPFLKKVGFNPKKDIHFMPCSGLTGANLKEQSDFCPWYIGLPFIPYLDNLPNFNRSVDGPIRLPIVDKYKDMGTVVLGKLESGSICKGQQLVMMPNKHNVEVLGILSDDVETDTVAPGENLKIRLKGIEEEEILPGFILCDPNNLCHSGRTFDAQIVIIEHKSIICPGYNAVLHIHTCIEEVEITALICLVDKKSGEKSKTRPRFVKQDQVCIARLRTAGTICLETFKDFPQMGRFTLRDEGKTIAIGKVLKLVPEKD

MOLT-4 [2] = assay: Antiproliferative activity against CRBN depleted human MOLT-4 cells assessed as reduction in cell viability measured after 3 days by ATP-dependent luminescence assay; format: functional, cell-based; settings: time 3.0 day
[3] = target: T1, Protein cereblon/Eukaryotic peptide chain release factor GTP-binding subunit ERF3A; assay: Molecular glue activity at CRBN/GSPT1 in CRBN depleted human BE2C cells assessed as induction of GSPT1 degradation at 3 uM measured after 3 hrs by immunoblot analysis; format: cell-based
Target sequence in this assay (P15170 whole entry, looked up): as the sequence (P15170 whole entry) above
Target sequence in this assay (Q96SW2 whole entry, looked up): as the sequence (Q96SW2 whole entry) above

[4] = target: T1, Protein cereblon/Eukaryotic peptide chain release factor GTP-binding subunit ERF3A; assay: Molecular glue activity at CRBN/HiBiT-tagged GSPT1 in human MOLT-4 cells assessed as induction of GSPT1 degradation at 3 uM pretreated with pomalidomide at 25 uM for 1 hr followed by compound treatment and measured after 3 hrs by immunoblot analysis; format: cell-based
Target sequence in this assay (P15170 whole entry, looked up): as the sequence (P15170 whole entry) above
Target sequence in this assay (Q96SW2 whole entry, looked up): as the sequence (Q96SW2 whole entry) above

[5] = target: DNA-binding protein Ikaros (Homo sapiens) (UniProt Q13422); assay: Induction of IKZF1 degradation in human MV4-11 cells at 3 uM measured after 3 hrs by proteomics analysis; format: cell-based
Chain of DNA-binding protein Ikaros (Homo sapiens) (Q13422 whole entry): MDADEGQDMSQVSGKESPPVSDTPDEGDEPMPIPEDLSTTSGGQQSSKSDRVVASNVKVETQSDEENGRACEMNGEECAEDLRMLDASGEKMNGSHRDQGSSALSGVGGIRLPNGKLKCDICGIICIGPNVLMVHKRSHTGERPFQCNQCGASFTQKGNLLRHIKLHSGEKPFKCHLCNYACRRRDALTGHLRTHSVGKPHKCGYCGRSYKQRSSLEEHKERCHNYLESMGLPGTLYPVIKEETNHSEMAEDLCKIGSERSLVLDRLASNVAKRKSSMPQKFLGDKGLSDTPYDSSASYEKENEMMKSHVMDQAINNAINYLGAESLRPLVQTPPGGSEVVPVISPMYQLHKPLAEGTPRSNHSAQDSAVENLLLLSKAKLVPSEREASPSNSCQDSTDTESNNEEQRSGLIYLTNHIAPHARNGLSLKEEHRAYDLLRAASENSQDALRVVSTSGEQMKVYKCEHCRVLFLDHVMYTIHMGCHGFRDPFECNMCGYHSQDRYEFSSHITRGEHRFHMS

MV4-11 [6] = assay: Antiproliferative activity against wild type human MV4-11 cells assessed as reduction in cell viability measured after 3 days by ATP-dependent luminescence assay; format: functional, cell-based; settings: MV4-11, 72 h
[7] = target: T1, Protein cereblon/Eukaryotic peptide chain release factor GTP-binding subunit ERF3A; assay: Molecular glue activity at CRBN/HiBiT-tagged GSPT1 in human MV4-11 cells assessed as induction of GSPT1 degradation at 3 uM pretreated with pomalidomide at 25 uM for 1 hr followed by compound treatment and measured after 3 hrs by immunoblot analysis; format: cell-based
Target sequence in this assay (P15170 whole entry, looked up): as the sequence (P15170 whole entry) above
Target sequence in this assay (Q96SW2 whole entry, looked up): as the sequence (Q96SW2 whole entry) above

[8] = target: T1, Protein cereblon/Eukaryotic peptide chain release factor GTP-binding subunit ERF3A; assay: Molecular glue activity at CRBN/GSPT1 in human MV4-11 cells harboring GSPT1 G575N mutant assessed as induction of GSPT1 degradation at 3 uM measured after 3 hrs by immunoblot analysis; format: cell-based
Target sequence in this assay (P15170 whole entry, looked up): as the sequence (P15170 whole entry) above
Target sequence in this assay (Q96SW2 whole entry, looked up): as the sequence (Q96SW2 whole entry) above

[9] = target: T1, Protein cereblon/Eukaryotic peptide chain release factor GTP-binding subunit ERF3A; assay: Molecular glue activity at CRBN/HiBiT-tagged GSPT1 in human MV4-11 cells assessed as induction of GSPT1 degradation at 3 uM pretreated with MLN4924 at 1 uM for 1 hr followed by compound treatment and measured after 3 hrs by immunoblot analysis; format: cell-based
Target sequence in this assay (P15170 whole entry, looked up): as the sequence (P15170 whole entry) above
Target sequence in this assay (Q96SW2 whole entry, looked up): as the sequence (Q96SW2 whole entry) above

BE(2)-C [10] = assay: Antiproliferative activity against human BE2C cells harboring GSPT1 G575N mutant assessed as reduction in cell viability measured after 3 days by ATP-dependent luminescence assay; format: functional, cell-based; settings: time 3.0 day
[11] = target: T1, Protein cereblon/Eukaryotic peptide chain release factor GTP-binding subunit ERF3A; assay: Molecular glue activity at CRBN/HiBiT-tagged GSPT1 in human MOLT-4 cells assessed as induction of GSPT1 degradation at 3 uM pretreated with MLN4924 at 1 uM for 1 hr followed by compound treatment and measured after 3 hrs by immunoblot analysis; format: cell-based
Target sequence in this assay (P15170 whole entry, looked up): as the sequence (P15170 whole entry) above
Target sequence in this assay (Q96SW2 whole entry, looked up): as the sequence (Q96SW2 whole entry) above

[12] = target: T1, Protein cereblon/Eukaryotic peptide chain release factor GTP-binding subunit ERF3A; assay: Molecular glue activity at CRBN/HiBiT-tagged GSPT1 in wild type human MV4-11 cells assessed as induction of GSPT1 degradation measured after 3 hrs by immunoblot analysis; format: cell-based
Target sequence in this assay (Q96SW2 whole entry): as above
Target sequence in this assay (P15170 whole entry): as the sequence (P15170 whole entry) above

BE(2)-C [13] = assay: Antiproliferative activity against wild type human BE2C cells assessed as reduction in cell viability measured after 3 days by ATP-dependent luminescence assay; format: functional, cell-based; settings: 72 h
[14] = target: DNA-binding protein Ikaros (Homo sapiens) (UniProt Q13422); assay: Induction of IKZF1 degradation in human MV4-11 cells at 3 uM measured after 3 hrs by immunoblot analysis; format: cell-based
[15] = Selectivity index, ratio of EC50 for antiproliferative activity against human BE2C cells to EC50 for antiproliferative activity against human MV4-11 cells; format: functional
[16] = Selectivity index, ratio of EC50 for antiproliferative activity against human BE2C cells to EC50 for antiproliferative activity against human MOLT-4 cells; format: functional
MV4-11 [17] = assay: Downregulation of GSPT1 protein abundance in human MV4-11 cells at 3 uM measured after 3 hrs by proteomics analysis; format: functional, cell-based
[18] = target: T1, Protein cereblon/Eukaryotic peptide chain release factor GTP-binding subunit ERF3A; assay: Molecular glue activity at CRBN/HiBiT-tagged GSPT1 in human MV4-11 cells assessed as induction of GSPT1 degradation at 3 uM pretreated with carfilzomib at 500 nM for 1 hr followed by compound treatment and measured after 3 hrs by immunoblot analysis; format: cell-based
MOLT-4 [19] = assay: Antiproliferative activity against human MOLT-4 cells harboring GSPT1 G575N mutant assessed as reduction in cell viability measured after 3 days by ATP-dependent luminescence assay; format: functional, cell-based; settings: time 3.0 day
[20] = target: DNA-binding protein Ikaros (Homo sapiens) (UniProt Q13422); assay: Induction of cHiBiT-tagged IKZF1 degradation in human MV4-11 cells; format: cell-based
[21] = target: T1, Protein cereblon/Eukaryotic peptide chain release factor GTP-binding subunit ERF3A; assay: Molecular glue activity at CRBN/GSPT1 in human BE2C cells harboring GSPT1 G575N mutant assessed as induction of GSPT1 degradation at 3 uM measured after 3 hrs by immunoblot analysis; format: cell-based
[22] = target: T1, Protein cereblon/Eukaryotic peptide chain release factor GTP-binding subunit ERF3A; assay: Molecular glue activity at CRBN/HiBiT-tagged GSPT1 in human BE2C cells assessed as induction of GSPT1 degradation at 3 uM pretreated with pomalidomide at 25 uM for 1 hr followed by compound treatment and measured after 3 hrs by immunoblot analysis; format: cell-based
MV4-11 [23] = assay: Antiproliferative activity against human MV4-11 cells harboring GSPT1 G575N mutant assessed as reduction in cell viability measured after 3 days by ATP-dependent luminescence assay; format: functional, cell-based; settings: time 3.0 day
[24] = target: T1, Protein cereblon/Eukaryotic peptide chain release factor GTP-binding subunit ERF3A; assay: Molecular glue activity at CRBN/HiBiT-tagged GSPT1 in human BE2C cells assessed as induction of GSPT1 degradation at 3 uM pretreated with MLN4924 at 1 uM for 1 hr followed by compound treatment and measured after 3 hrs by immunoblot analysis; format: cell-based
MV4-11 [25] = assay: Downregulation of GSPT2 protein abundance in human MV4-11 cells at 3 uM measured after 3 hrs by proteomics analysis; format: functional, cell-based
[26] = target: T1, Protein cereblon/Eukaryotic peptide chain release factor GTP-binding subunit ERF3A; assay: Molecular glue activity at CRBN/GSPT1 in human MOLT-4 cells harboring GSPT1 G575N mutant assessed as induction of GSPT1 degradation at 3 uM measured after 3 hrs by immunoblot analysis; format: cell-based
[27] = target: T1, Protein cereblon/Eukaryotic peptide chain release factor GTP-binding subunit ERF3A; assay: Molecular glue activity at CRBN/GSPT1 in CRBN depleted human MV4-11 cells assessed as induction of GSPT1 degradation at 3 uM measured after 3 hrs by immunoblot analysis; format: cell-based
MV4-11 [28] = assay: Antiproliferative activity against CRBN depleted human MV4-11 cells assessed as reduction in cell viability measured after 3 days by ATP-dependent luminescence assay; format: functional, cell-based; settings: time 3.0 day
[29] = target: T1, Protein cereblon/Eukaryotic peptide chain release factor GTP-binding subunit ERF3A; assay: Molecular glue activity at CRBN/HiBiT-tagged GSPT1 in human MOLT-4 cells assessed as induction of GSPT1 degradation at 3 uM pretreated with carfilzomib at 500 nM for 1 hr followed by compound treatment and measured after 3 hrs by immunoblot analysis; format: cell-based
[30] = target: T1, Protein cereblon/Eukaryotic peptide chain release factor GTP-binding subunit ERF3A; assay: Molecular glue activity at CRBN/HiBiT-tagged GSPT1 in wild type human BE2C cells assessed as induction of GSPT1 degradation measured after 3 hrs by immunoblot analysis; format: cell-based
Target sequence in this assay (Q96SW2 whole entry): as the sequence (Q96SW2 whole entry) above
Target sequence in this assay (P15170 whole entry): as the sequence (P15170 whole entry) above

BE(2)-C [31] = assay: Antiproliferative activity against CRBN depleted human BE2C cells assessed as reduction in cell viability measured after 3 days by ATP-dependent luminescence assay; format: functional, cell-based; settings: time 3.0 day
[32] = target: T1, Protein cereblon/Eukaryotic peptide chain release factor GTP-binding subunit ERF3A; assay: Molecular glue activity at CRBN/HiBiT-tagged GSPT1 in human BE2C cells assessed as induction of GSPT1 degradation at 3 uM pretreated with carfilzomib at 500 nM for 1 hr followed by compound treatment and measured after 3 hrs by immunoblot analysis; format: cell-based
MOLT-4 [33] = assay: Antiproliferative activity against wild type human MOLT-4 cells assessed as reduction in cell viability measured after 3 days by ATP-dependent luminescence assay; format: functional, cell-based; settings: MOLT-4, 72 h
[34] = target: T1, Protein cereblon/Eukaryotic peptide chain release factor GTP-binding subunit ERF3A; assay: Molecular glue activity at CRBN/GSPT1 in CRBN depleted human MOLT-4 cells assessed as induction of GSPT1 degradation at 3 uM measured after 3 hrs by immunoblot analysis; format: cell-based

With `CCCOc1ccccc1CNS(=O)(=O)Nc1ccc2c(c1)CN(C1CCC(=O)NC1=O)C2=O` (centres undefined) the DC50 [1] was 90 nM, the Activity (MOLT-4 [2]) was “inactive” and the Activity [3] was “inactive”. For the same molecule, the Activity [4] was “inactive”, the Activity [5] was “inactive” and the EC50 (MV4-11 [6]) was 80 nM. For the same molecule, the Activity [7] was “inactive”, the Activity [8] was “inactive” and the Activity [9] was “inactive”. For the same molecule, the Activity (BE(2)-C [10]) was “inactive”, the Activity [11] was “inactive” and the DC50 [12] was 60 nM. For the same molecule, the EC50 (BE(2)-C [13]) was 18000 nM, the Activity [14] was “inactive” and the “Ratio EC50” value [15] was roughly 100. For the same molecule, the “Ratio EC50” value [16] was roughly 100, the Activity (MV4-11 [17]) was “Active” and the Activity [18] was “inactive”. For the same molecule, the Activity (MOLT-4 [19]) was “inactive”, the Activity [20] was “inactive” and the Activity [21] was “inactive”. For the same molecule, the Activity [22] was “inactive”, the Activity (MV4-11 [23]) was “inactive” and the Activity [24] was “inactive”. The Activity (MV4-11 [25]) was “Active”, the Activity [26] was “inactive” and the Activity [27] was “inactive”. The Activity (MV4-11 [28]) was “inactive”, the Activity [29] was “inactive” and the DC50 [30] was 7000 nM. For the same molecule, the Activity (BE(2)-C [31]) was “inactive”, the Activity [32] was “inactive” and the EC50 (MOLT-4 [33]) was 110 nM. For the same molecule, the Activity [34] was “inactive”.

Source: ChEMBL document CHEMBL5550120, “SuFEx-based chemical diversification for the systematic discovery of CRBN molecular glues” (Bioorg Med Chem, 2024)
